The numbers were not newly measured in US11999963B2, “Pseudomonas protegens and products thereof to control bacterial panicle blight of rice” (priority 2020, dated 2024), which cites them from elsewhere.

The test system of this data set is Pythium ultimum. Conditions: Howell & Stipanovic, 1980; Maurhofer et al., 1994.

As to `O=C(c1cc(Cl)c(Cl)[nH]1)c1c(O)cccc1O` [Pyoluteorin, pyoluteorin], the “activity against Pythium ultimum” value is on record as “had activity”.
